Results published in US10273228B2, “Hepatitis B viral assembly effectors” (Indiana University Research and Technology Corporation, priority 2015, dated 2019).
Where two headings read alike, the source gives them in different places.

Tests used:
AD38 cells = assay: AD38 viability normalized to DMSO control; assay type: cell-based; conditions: 10 μM compound, vs DMSO control
Method: (§1) AD38 cells were then re-suspended with 10 mL of treatment medium and counted. Wells of a collagen coated 96-well NUNC microtiter plate were seeded at 50,000/well in 180 μL of treatment medium, and 20 μL of either 10% DMSO (Control) or a 10× solution of test compound in 10% DMSO in treatment media was added for a final compound concentration 1, 3, or 10 μM (1.0% final [DMSO]) and plates were incubated for 6 days at 37° C.

[1] = tested on: HBV viral load, AD38 cells; assay: Activity of test compounds on viral production from AD38 cells (viral load by quantitative PCR of the core sequence in supernatant); assay type: cell-based, Hepatitis B virus; conditions: 10 μM compound, 6 days at 37° C., vs DMSO control wells; for activity at 10 µM: Hepatitis B virus, 144 h, read-out: AD38 Viral Load (CpAM/DMSO %) at 10 μM
Method: as §1
Subsequently viral load production was assayed by quantitative PCR of the core sequence. Briefly, 5 μL of clarified supernatant was added to a PCR reaction mixture that contained forward primers HBV-f 5′-CTGTGCCTTGGGTGGCTTT-3′, Reverse primers HBV-r 5′-[…]-3′ and Fluorescent TaqMan™ Probes HBV-probe 5′-FAM/AGCTCCAAA/ZEN/[…]/3IABkFQ-3′ in Quanta Biosciences PerfeCTa® qPCR Toughmix®, and was subsequently on an Applied Biosystems VIIA7 in a final volume of 20 μL. The PCR mixture was incubated at 45° C. for 5 minutes, then 95° C. for 10 min, followed by 40 cycles of 10 seconds at 95° C. and 20 seconds at 60° C. Viral load was quantitated against known standards by using ViiA™ 7 Software. Viral load in the supernatant from wells with treated cells were compared against viral load in supernatant from DMSO control wells (≥3 per plate).

Row | SMILES | AD38 Viability Normalized Result (CPAM/DMSO %) at 10 μM (AD38 cells; Table 9) [%] | AD38 Viral Load (CpAM/DMSO %) at 10 μM ([1]; Table 9) [%] | AD38 Viability Normalized Result (CPAM/DMSO %) at 10 μM (AD38 cells; Table 6) [%] | activity at 10 µM ([1]; Table 6) [%] | activity at 10 µM ([1]; Table 9) [%]
1 | COC(=O)Cc1ccc(S(=O)(=O)N2CCN(c3nc(C)cc(Nc4ccc(F)cc4)n3)CC2)cc1 [Compound 1393, methyl 2-(4-((4-(4-((4-fluorophenyl)amino)-6-methylpyrimidin-2-yl)piperazin-1-yl)sulfonyl)phenyl) acetate] | 102 | 79 | – | – | –
2 | COc1ccc(S(=O)(=O)N2CCN(c3nc(Nc4ccc(C)cc4)cc(N4CCCC4=O)n3)CC2)cc1 [Compound 1212] | – | – | 94 | 77 | –
3 | Cc1cc(Nc2ccc(F)cc2)nc(N2CCN(S(=O)(=O)c3ccc(OCCN(C)C)cc3)CC2)n1 [Compound 1378, 2-(4-((4-(2-(dimethylamino)ethoxy)phenyl)sulfonyl)piperazin-1-yl)-N-(4-fluorophenyl)-6-methylpyrimidin-4-amine] | 1 | – | – | – | 13
4 | Cc1ccc(S(=O)(=O)N2CCN(c3nc(Nc4ccc(F)cc4)cc(N(C)C)n3)CC2)cc1 [Compound 1306] | – | – | 103 | 22 | –
5 | COc1ccc(S(=O)(=O)N2CCN(c3nc(C)cc(Nc4nccs4)n3)CC2)cc1 [Compound 1233] | – | – | 95 | 87 | –
6 | CCOc1ccc(S(=O)(=O)N2CCN(c3nc(Nc4ccc(C#N)cc4)cc(C(F)(F)F)n3)CC2)cc1 [Compound 1333] | 85 | – | – | – | 2
7 | Cc1ccc(Nc2cc(C)nc(N3CCN(S(=O)(=O)c4ccc(N)nc4)CC3)n2)cc1 [Compound 1245] | – | – | 99 | 70 | –
8 | N#Cc1ccc(Nc2cc(-c3cncs3)nc(N3CCN(S(=O)(=O)c4ccccc4)CC3)n2)cc1 [Compound 1374] | 107 | – | – | – | 7
9 | COc1ccc(S(=O)(=O)N2CCN(c3nc(C)cc(Nc4ccc(C)nc4)n3)CC2)cc1 [Compound 1194] | – | – | 109 | 64 | –
10 | CN(C)c1cc(Nc2ccc(F)cc2)nc(N2CCN(S(=O)(=O)c3cccc(C(F)(F)F)c3)CC2)n1 [Compound 1305] | – | – | 6 | 4 | –
11 | COc1ccc(S(=O)(=O)N2CCN(c3nc(Nc4ccc(C)cc4)cc(N4CCCCC4=O)n3)CC2)cc1 [Compound 1213] | – | – | 94 | 40 | –
12 | CN(C)c1cc(Nc2ccc(F)cc2)nc(N2CCN(S(=O)(=O)c3ccccc3)CC2)n1 [Compound 1304] | – | – | 113 | 48 | –
13 | N#Cc1ccc(Nc2cc(-c3nccs3)nc(N3CCN(S(=O)(=O)c4ccc(OC(F)(F)F)cc4)CC3)n2)cc1 [Compound 1364] | 100 | – | – | – | 62
14 | CCOc1ccc(S(=O)(=O)N2CCN(c3nc(Nc4ccc(F)cc4)cc(-c4nccs4)n3)CC2)cc1 [Compound 1358] | 99 | – | – | – | 77
15 | O=S(=O)(c1ccc(OC(F)(F)F)cc1)N1CCN(c2nc(Nc3ccc(F)cc3)cc(-c3nccs3)n2)CC1 [Compound 1367] | 105 | 44 | – | – | –
16 | COc1ccc(S(=O)(=O)N2CCN(c3nc(C)cc(Nc4cncnc4)n3)CC2)cc1 [Compound 1186] | – | – | 106 | 76 | –
17 | COc1ccc(S(=O)(=O)N2CCN(c3cc(C)nc(Nc4ccc(C)cc4)n3)CC2)cc1 [Compound 1150] | – | – | 89 | 4 | –
18 | COc1ccc(S(=O)(=O)N2CCN(c3nc(Nc4ccc(C)cc4)cc(OCCO)n3)CC2)cc1 [Compound 1265, 2-((2-(4-((4-methoxyphenyl)sulfonyl)piperazin-1-yl)-6-(p-tolylamino)pyrimidin-4-yl)oxy) ethan-1-ol] | – | – | 102 | 13 | –
19 | COc1ccc(S(=O)(=O)N2CCN(c3nc(C)cc(Nc4ncc(C)cn4)n3)CC2)cc1 [Compound 1261] | – | – | 98 | 87 | –
20 | COc1ccc(S(=O)(=O)N2CCN(c3cccc(Nc4ccc(C)cc4)n3)CC2)cc1 [Compound 1158] | – | – | 92 | 51 | –
